Test results published in patent US8481595B2, “Compounds for the treatment of metabolic disorders” (Wellstat Therapeutics Corporation, priority 2008, dated 2013).

Test system: db/db mice
Assay: Antidiabetic effects in db/db mice (serum chemistry after 2 weeks of daily oral dosing)
Assay type: in vivo
Excerpt: Db/db mice have a defect in leptin signaling, leading to hyperphagia, obesity and diabetes. Moreover, unlike ob/ob mice on a C57BL/6J background, db/db mice on a C57BLKS background undergo failure of their insulin-producing pancreatic islet cells, resulting in progression from hyperinsulinemia (associated with peripheral insulin resistance) to hypoinsulinemic diabetes.
Male obese (db/db homozygote) C57BL/Ksola mice approximately 8 weeks of age, were obtained from Jackson Labs (Bar Harbor, Me.) and randomly assigned into groups of 5-7 animals such that the body weights (40-45 g) and serum glucose levels (≧300 mg/dl in fed state) were similar between groups; male lean (db/+heterozygote) mice served as cohort controls. A minimum of 7 days was allowed for adaptation after arrival. All animals were maintained under controlled temperature (23° C.), relative humidity (50±5%) and light (7:0-19:00), and allowed free access to standard chow (Formulab Diet 5008, Quality Lab Products, Elkridge, Md.) and water.
Mice received daily oral doses of vehicle or Compound DP (100 mg/kg/day) for 2 weeks. At the end of the treatment period 100 μl of venous blood was withdrawn in a heparinized capillary tube from the retro-orbital sinus for serum chemistry analysis.

[1] = db/db mice, after 2 weeks of daily oral dosing, 100 mg/kg/day

`Cc1cccc(C)c1C(=O)Oc1cccc(C(=O)CCC(=O)O)c1` [Compound DP, 4-(3-(2,6-Dimethylbenzoyloxy)phenyl)-4-oxobutanoic acid] was tested, and the “reduction in serum glucose (in words)” value [1] was “significant reduction”, the “reduction in serum triglycerides (in words)” value [1] was “significant reduction” and the “Triglycerides (serum)” value (male db/db C57BL/Ksola mice, 100 mg/kg/day oral, 2 weeks, vehicle 388.0 ± 50.7, lean 96.4 ± 6.4, *p < 0.05 vs vehicle-control) was 140.8 ± 20.6* mg/dL. The “Glucose (serum)” value (male db/db C57BL/Ksola mice, 100 mg/kg/day oral, 2 weeks, vehicle 752.9 ± 46.0, lean 212.6 ± 15.3, *p < 0.05 vs vehicle-control) was 264.3 ± 96.8* mg/dL.
